Reference: ChEMBL document CHEMBL3739322, “Novel oxime-bearing coumarin derivatives act as potent Nrf2/ARE activators in vitro and in mouse model” (Eur J Med Chem, 2015)

Legend:
[1] = target: T1, Nuclear factor erythroid 2-related factor 2 (Homo sapiens) (UniProt Q16236); assay: Activation of Nrf2 in human HSC3-ARE9 cells assessed as increase of ARE-mediated luciferase expression at 50 uM after 24 hrs relative to control; format: cell-based
T1 sequence (whole entry): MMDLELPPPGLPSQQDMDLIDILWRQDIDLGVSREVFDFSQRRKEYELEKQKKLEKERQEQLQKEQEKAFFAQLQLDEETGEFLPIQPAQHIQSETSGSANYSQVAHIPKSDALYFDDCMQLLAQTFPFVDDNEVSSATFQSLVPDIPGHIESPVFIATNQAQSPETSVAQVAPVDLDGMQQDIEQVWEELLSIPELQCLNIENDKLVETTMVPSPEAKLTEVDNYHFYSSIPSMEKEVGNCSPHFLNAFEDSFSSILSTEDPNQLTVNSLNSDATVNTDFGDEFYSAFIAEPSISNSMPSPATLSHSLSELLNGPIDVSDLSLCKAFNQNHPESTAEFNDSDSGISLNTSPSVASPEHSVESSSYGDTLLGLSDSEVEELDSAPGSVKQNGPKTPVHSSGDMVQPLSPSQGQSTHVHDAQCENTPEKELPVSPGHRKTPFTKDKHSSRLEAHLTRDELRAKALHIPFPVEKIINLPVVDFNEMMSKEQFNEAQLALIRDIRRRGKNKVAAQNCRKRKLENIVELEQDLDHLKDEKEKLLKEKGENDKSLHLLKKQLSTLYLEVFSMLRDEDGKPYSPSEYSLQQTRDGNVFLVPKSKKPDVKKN

[2] = Antioxidant activity assessed as DPPH radical scavenging activity; format: physicochemical
[3] = target: T1, Nuclear factor erythroid 2-related factor 2 (Homo sapiens); assay: Activation of Nrf2 in human HSC3-ARE9 cells assessed as increase of ARE-mediated luciferase expression after 24 hrs; format: cell-based
[4] = Cytotoxicity against human HSC3 cells after 24 hrs by MTT assay; format: cell-based; conditions: hsc-3, 24 h
[5] = target: T1, Nuclear factor erythroid 2-related factor 2 (Homo sapiens); assay: Activation of Nrf2 in human HSC3-ARE9 cells assessed as increase of ARE-mediated Prx1 mRNA expression at 50 uM after 24 hrs by RT-PCR analysis relative to control; format: cell-based
[6] = target: T1, Nuclear factor erythroid 2-related factor 2 (Homo sapiens); assay: Activation of Nrf2 in human HSC3-ARE9 cells assessed as increase of ARE-mediated AKR1C1 mRNA expression at 50 uM after 24 hrs by RT-PCR analysis relative to control; format: cell-based
[7] = target: T1, Nuclear factor erythroid 2-related factor 2 (Homo sapiens); assay: Activation of Nrf2 in human HSC3-ARE9 cells assessed as increase of ARE-mediated GCLC mRNA expression at 50 uM after 24 hrs by RT-PCR analysis relative to control; format: cell-based

## O=c1cc(OC/C(=N\O)c2ccc(-c3ccccc3)cc2)c2ccccc2o1
[1]
  fold change (FC): 1.32

## O=C(COc1ccc2oc(=O)ccc2c1)c1ccc(-c2ccccc2)cc1
[1]
  fold change (FC): 0.85

## O=C(COc1cc(=O)oc2ccccc12)Nc1ccc(-c2ccccc2)cc1
[1]
  fold change (FC): 1.17

## O=C(COc1ccc2ccc(=O)oc2c1)c1ccc(-c2ccccc2)cc1
[1]
  fold change (FC): 0.85

## CC(=O)COc1ccc2oc(=O)ccc2c1
[1]
  fold change (FC): 1.03

## C/C(COc1cc2ccccc2oc1=O)=N\O
[1]
  fold change (FC): 1.63

## O=C(COc1ccc2ccc(=O)oc2c1)Nc1ccc2ccccc2c1
[1]
  fold change (FC): 1.06

## C/C(COc1ccc2oc(=O)ccc2c1)=N\O
[1]
  fold change (FC): 1.64

## O=C(COc1ccc2oc(=O)ccc2c1)Nc1ccccc1
[1]
  fold change (FC): 2.08

## O=c1ccc2ccc(OC/C(=N\O)c3ccc(-c4ccccc4)cc3)cc2o1
[1]
  fold change (FC): 0.9

## O=C(COc1cc(=O)oc2ccccc12)c1ccc(F)cc1
[1]
  fold change (FC): 1.26

## COc1ccc(NC(=O)COc2cc(=O)oc3ccccc23)cc1
[1]
  fold change (FC): 1.34

## O=c1cc(OC/C(=N\O)c2ccc3ccccc3c2)c2ccccc2o1
[1]
  fold change (FC): 1.43

## CC(=O)COc1cc2ccccc2oc1=O
[1]
  fold change (FC): 0.92

## O=c1ccc2ccc(OC/C(=N\O)c3ccc4ccccc4c3)cc2o1
[1]
  fold change (FC): 1.04

## O=c1oc2ccccc2cc1OC/C(=N\O)c1ccc2ccccc2c1
[1]
  fold change (FC): 1.31

## O=C(COc1cc2ccccc2oc1=O)c1ccc(-c2ccccc2)cc1
[1]
  fold change (FC): 0.98

## C/C(COc1cc(=O)oc2ccccc12)=N\O
[1]
  fold change (FC): 1.37

## COc1ccc(C(=O)COc2ccc3ccc(=O)oc3c2)cc1
[1]
  fold change (FC): 1.07

## COc1ccc(NC(=O)COc2cc3ccccc3oc2=O)cc1
[1]
  fold change (FC): 0.95

## O=C(COc1ccc2oc(=O)ccc2c1)Nc1ccc2ccccc2c1
[1]
  fold change (FC): 0.91

## O=C(COc1cc(=O)oc2ccccc12)Nc1ccccc1
[1]
  fold change (FC): 1.06

## O=C(COc1cc2ccccc2oc1=O)c1ccc2ccccc2c1
[1]
  fold change (FC): 0.98

## O=C(COc1ccc2oc(=O)ccc2c1)c1ccccc1
[1]
  fold change (FC): 2.54

## O=c1oc2ccccc2cc1OC/C(=N\O)c1ccc(-c2ccccc2)cc1
[1]
  fold change (FC): 1.44

## O=C(COc1cc(=O)oc2ccccc12)Nc1ccc2ccccc2c1
[1]
  fold change (FC): 1.37

## COc1ccc(C(=O)COc2cc(=O)oc3ccccc23)cc1
[1]
  fold change (FC): 1.36

## O=C(COc1cc2ccccc2oc1=O)Nc1ccc(F)cc1
[1]
  fold change (FC): 1.34

## O=C(COc1cc2ccccc2oc1=O)c1ccc(F)cc1
[1]
  fold change (FC): 1.64

## O=C(COc1ccc2ccc(=O)oc2c1)c1ccc2ccccc2c1
[1]
  fold change (FC): 0.17

## O=c1ccc2cc(OC/C(=N\O)c3ccc(F)cc3)ccc2o1
[1]
  fold change (FC): 2.32

## O=C(COc1ccc2oc(=O)ccc2c1)c1ccc2ccccc2c1
[1]
  fold change (FC): 0.61

## CC(=O)COc1ccc2ccc(=O)oc2c1
[1]
  fold change (FC): 1.09

## O=C(COc1cc(=O)oc2ccccc12)c1ccccc1
[1]
  fold change (FC): 1.98

## O=c1ccc2cc(OC/C(=N\O)c3ccc(-c4ccccc4)cc3)ccc2o1
[1]
  fold change (FC): 1.5

## O=C(COc1ccc2ccc(=O)oc2c1)c1ccc(F)cc1
[1]
  fold change (FC): 1.14

## COc1ccc(/C(COc2ccc3oc(=O)ccc3c2)=N/O)cc1
[1]
  fold change (FC): 1.33

## O=c1ccc2cc(OC/C(=N\O)c3ccc4ccccc4c3)ccc2o1
[1]
  fold change (FC): 1.46

## COc1ccc(/C(COc2ccc3ccc(=O)oc3c2)=N/O)cc1
[1]
  fold change (FC): 1.28

## O=C(COc1cc2ccccc2oc1=O)Nc1ccccc1
[1]
  fold change (FC): 2.51

## O=C(COc1ccc2oc(=O)ccc2c1)c1ccc(F)cc1
[1]
  fold change (FC): 1.58

## O=C(COc1cc2ccccc2oc1=O)Nc1ccc(-c2ccccc2)cc1
[1]
  fold change (FC): 1.22

## O=C(COc1cc(=O)oc2ccccc12)Nc1ccc(F)cc1
[1]
  fold change (FC): 1.11

## O=c1ccc2ccc(OC/C(=N\O)c3ccc(F)cc3)cc2o1
[1]
  fold change (FC): 1.32

## O=C(COc1ccc2oc(=O)ccc2c1)Nc1ccc(-c2ccccc2)cc1
[1]
  fold change (FC): 0.95

## O=c1cc(O)c2ccccc2o1 [4-HYDROXYCOUMARINS]
[2]
  EC50: 351 µM
[1]
  fold change (FC): 0.84

## O=C(COc1ccc2ccc(=O)oc2c1)c1ccccc1
[1]
  fold change (FC): 1.93

## O=c1ccc2ccc(OC/C(=N\O)c3ccccc3)cc2o1
[1]
  fold change (FC): 2.16

## O=c1cc(OC/C(=N\O)c2ccccc2)c2ccccc2o1
[1]
  fold change (FC): 1.35

## COc1ccc(/C(COc2cc3ccccc3oc2=O)=N/O)cc1
[1]
  fold change (FC): 1.49

## O=C(COc1ccc2ccc(=O)oc2c1)Nc1ccc(-c2ccccc2)cc1
[1]
  fold change (FC): 1.09

## CC(=O)COc1cc(=O)oc2ccccc12
[1]
  fold change (FC): 0.79

## O=C(COc1cc(=O)oc2ccccc12)c1ccc2ccccc2c1
[1]
  fold change (FC): 1.52

## O=c1ccc2ccc(O)cc2o1 [UMBELLIFERONE]
[2]
  EC50: > 400 µM
[1]
  fold change (FC): 0.98

## O=c1ccc2cc(O)ccc2o1 [6-HYDROXYCOUMARIN]
[2]
  EC50: > 400 µM
[1]
  fold change (FC): 0.99

## O=c1ccc2cc(OC/C(=N\O)c3ccccc3)ccc2o1
[2]
  EC50: > 400 µM
[1]
  fold change (FC): 3.02
[3]
  Activity: Dose-dependent effect
[4]
  Activity: Non-toxic

## O=c1cc(OC/C(=N\O)c2ccc(F)cc2)c2ccccc2o1
[1]
  fold change (FC): 1.67

## CC(C)(C)c1cc(O)ccc1O [E319]
[2]
  EC50: 57.5 µM
[5]
  fold change (FC): 1.1
[1]
  fold change (FC): 2.01
[6]
  fold change (FC): 2.3
[7]
  fold change (FC): 2

## C/C(COc1ccc2ccc(=O)oc2c1)=N\O
[1]
  fold change (FC): 1.68

## O=c1oc2ccccc2cc1O [3-HYDROXYCOUMARIN]
[2]
  EC50: 65.8 µM
[1]
  fold change (FC): 0.94

## O=C(COc1ccc2ccc(=O)oc2c1)Nc1ccccc1
[1]
  fold change (FC): 2.27

## O=C(COc1cc(=O)oc2ccccc12)c1ccc(-c2ccccc2)cc1
[1]
  fold change (FC): 0.42

## COc1ccc(C(=O)COc2cc3ccccc3oc2=O)cc1
[1]
  fold change (FC): 1.54

## COc1ccc(C(=O)COc2ccc3oc(=O)ccc3c2)cc1
[1]
  fold change (FC): 0.82

## O=C(COc1ccc2oc(=O)ccc2c1)Nc1ccc(F)cc1
[1]
  fold change (FC): 0.95

## COc1ccc(NC(=O)COc2ccc3ccc(=O)oc3c2)cc1
[1]
  fold change (FC): 0.98

## O=C(COc1cc2ccccc2oc1=O)Nc1ccc2ccccc2c1
[1]
  fold change (FC): 1.13

## O=c1oc2ccccc2cc1OC/C(=N\O)c1ccc(F)cc1
[2]
  EC50: > 400 µM
[1]
  fold change (FC): 3.25
[3]
  Activity: Dose-dependent effect
[4]
  Activity: Non-toxic

## O=C(COc1ccc2ccc(=O)oc2c1)Nc1ccc(F)cc1
[1]
  fold change (FC): 1.16

## COc1ccc(NC(=O)COc2ccc3oc(=O)ccc3c2)cc1
[1]
  fold change (FC): 0.89

## COc1ccc(/C(COc2cc(=O)oc3ccccc23)=N/O)cc1
[1]
  fold change (FC): 1.76

## O=C(COc1cc2ccccc2oc1=O)c1ccccc1
[1]
  fold change (FC): 1.72
